According to PubChem BioAssay (NCI):
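All cell lines were grown in 96-well plates and treated with compound for 48 hours. TGI is the concentration that stops growth completely.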

Legend:
Assay in all cases: NCI anticancer screen, dose series, 48 h
ACHN renal = tested on: ACHN renal
U251 CNS = tested on: U251 CNS
CAKI-1 renal = tested on: CAKI-1 renal
NCI-H460 lung = tested on: NCI-H460 lung
UACC-257 melanoma = tested on: UACC-257 melanoma
OVCAR-8 ovarian = tested on: OVCAR-8 ovarian
COLO 205 colon = tested on: COLO 205 colon
MOLT-4 leukemia = tested on: MOLT-4 leukemia
UACC-62 melanoma = tested on: UACC-62 melanoma
MDA-MB-231 breast = tested on: MDA-MB-231 breast
K-562 leukemia = tested on: K-562 leukemia
SN12C renal = tested on: SN12C renal
SK-MEL-5 melanoma = tested on: SK-MEL-5 melanoma
CCRF-CEM leukemia = tested on: CCRF-CEM leukemia
MDA-MB-435 = tested on: MDA-MB-435
OVCAR-5 ovarian = tested on: OVCAR-5 ovarian
HOP-92 NSCLC = tested on: HOP-92 NSCLC
A498 renal = tested on: A498 renal
EKVX NSCLC = tested on: EKVX NSCLC

Row | SMILES | TGI (ACHN renal) [µM] | TGI (U251 CNS) [µM] | TGI (CAKI-1 renal) [µM] | TGI (NCI-H460 lung) [µM] | TGI (UACC-257 melanoma) [µM] | TGI (OVCAR-8 ovarian) [µM] | TGI (COLO 205 colon) [µM] | TGI (MOLT-4 leukemia) [µM] | TGI (UACC-62 melanoma) [µM] | TGI (MDA-MB-231 breast) [µM] | TGI (K-562 leukemia) [µM] | TGI (SN12C renal) [µM] | TGI (SK-MEL-5 melanoma) [µM] | TGI (CCRF-CEM leukemia) [µM] | TGI (MDA-MB-435) [µM] | TGI (OVCAR-5 ovarian) [µM] | TGI (HOP-92 NSCLC) [µM] | TGI (A498 renal) [µM] | TGI (EKVX NSCLC) [µM]
1 | CC(C)CCNC(=O)c1ccc(CNC(=O)/C=C/c2ccc(-c3ccccc3[N+](=O)[O-])o2)cc1 | > 100 | > 100 | > 100 | > 100 | > 100 | > 100 | > 100 | > 100 | > 100 | > 100 | > 100 | > 100 | > 100 | > 100 | > 100 | > 100 | – | – | –
2 | COc1ccc(C2=C(OC(C)=O)c3cccn3-c3ccccc3S2)cc1 | – | – | > 10 | – | > 10 | > 10 | 8.53 | > 10 | > 10 | > 10 | – | > 10 | > 10 | > 10 | 0.877 | – | > 10 | – | –
3 | O=[N+]([O-])C(=C1Nc2ccccc2N1)C(Cl)=C(Cl)Cl | > 100 | > 100 | > 100 | > 100 | > 100 | > 100 | > 100 | 56.3 | > 100 | 90.3 | > 100 | > 100 | > 100 | 76 | > 100 | > 100 | > 100 | > 100 | > 100
4 | CCOc1ccc(N=Cc2cc(OC)c(OC)c(OC)c2)cc1 | > 100 | > 100 | > 100 | > 100 | > 100 | > 100 | > 100 | > 100 | > 100 | – | > 100 | > 100 | > 100 | > 100 | – | > 100 | > 100 | > 100 | > 100
5 | CCC(C)(C)NC1=C(NC(C)=O)C(=O)c2ccccc2C1=O | 43.2 | > 75 | – | > 75 | 70.7 | > 75 | > 75 | 31.6 | > 75 | – | 53.4 | > 75 | 26 | 41.3 | – | – | – | – | > 75
6 | c1ccc2cc3n[se]nc3cc2c1 | > 100 | > 100 | > 100 | – | > 100 | > 100 | > 100 | > 100 | > 100 | – | > 100 | > 100 | > 100 | > 100 | – | > 100 | – | – | > 100
7 | CCC12C=CCN3CC[C@]4(C(=C(C(=O)OC)[C@@H]1Nc1ccn(C5OC(COC(C)=O)C(OC(C)=O)C5OC(C)=O)c(=O)n1)Nc1ccccc14)C32 (some centres undefined) | 8 | 7.69 | 15.8 | 8.62 | 3.62 | 11 | 8.11 | 23.5 | 6.94 | – | 17.1 | 8.24 | 8.1 | 13.2 | – | 3.6 | 8.02 | 10.7 | 14.3
8 | OCCOCCO[P+]1(OCCOCCO)n2c3ccc2C(c2ccccc2)=C2C=CC(=N2)C(c2ccccc2)=c2ccc(n21)=C(c1ccccc1)C1=NC(=C3c2ccccc2)C=C1 | 1.05 | > 100 | 3.79 | 0.886 | 0.124 | 2.09 | 0.0998 | 0.189 | 0.633 | 0.247 | – | – | 0.134 | 1.14 | – | 1.95 | > 100 | > 100 | –
9 | COc1cc(CNC(=O)CCCCCCCC/C=C/Br)ccc1O | > 10 | > 10 | > 10 | > 10 | > 10 | > 10 | > 10 | > 10 | > 10 | > 10 | > 10 | > 10 | > 10 | > 10 | > 10 | – | > 10 | > 10 | > 10
10 | CC1=NN(C(=O)c2ccc(Cl)cc2)C(=O)/C1=C/c1cccc(O)c1 | > 100 | > 100 | > 100 | > 100 | > 100 | > 100 | > 100 | > 100 | > 100 | – | > 100 | > 100 | > 100 | > 100 | – | > 100 | > 100 | > 100 | > 100
11 | CC(C)(C)C1CCC2c3c([nH]c4ccccc34)C3C(=O)N(c4ccc(Br)cc4)C(=O)C3C2C1 (centres undefined) | 35.7 | – | 43.8 | 38.9 | 50.2 | 42.9 | 23.3 | 26.2 | > 100 | – | 43.5 | 27.6 | 62.2 | 39.8 | – | 56.5 | 49 | 52.3 | 63.2
